Assay results published in ChEMBL document CHEMBL3774336, “Identification of spirooxindole and dibenzoxazepine motifs as potent mineralocorticoid receptor antagonists” (Bioorg Med Chem, 2016).

Experiments:
[1] = biological target: Mineralocorticoid receptor (Homo sapiens, UniProt P08235, C808S)
[2] = biological target: T1, Glucocorticoid receptor (Homo sapiens) (UniProt P04150); assay: Inhibition of GST-tagged human glucocorticoid receptor LBD domain expressed in insect cells at 10 uM by Gal4-based fluorescence polarization assay
T1 sequence (whole entry): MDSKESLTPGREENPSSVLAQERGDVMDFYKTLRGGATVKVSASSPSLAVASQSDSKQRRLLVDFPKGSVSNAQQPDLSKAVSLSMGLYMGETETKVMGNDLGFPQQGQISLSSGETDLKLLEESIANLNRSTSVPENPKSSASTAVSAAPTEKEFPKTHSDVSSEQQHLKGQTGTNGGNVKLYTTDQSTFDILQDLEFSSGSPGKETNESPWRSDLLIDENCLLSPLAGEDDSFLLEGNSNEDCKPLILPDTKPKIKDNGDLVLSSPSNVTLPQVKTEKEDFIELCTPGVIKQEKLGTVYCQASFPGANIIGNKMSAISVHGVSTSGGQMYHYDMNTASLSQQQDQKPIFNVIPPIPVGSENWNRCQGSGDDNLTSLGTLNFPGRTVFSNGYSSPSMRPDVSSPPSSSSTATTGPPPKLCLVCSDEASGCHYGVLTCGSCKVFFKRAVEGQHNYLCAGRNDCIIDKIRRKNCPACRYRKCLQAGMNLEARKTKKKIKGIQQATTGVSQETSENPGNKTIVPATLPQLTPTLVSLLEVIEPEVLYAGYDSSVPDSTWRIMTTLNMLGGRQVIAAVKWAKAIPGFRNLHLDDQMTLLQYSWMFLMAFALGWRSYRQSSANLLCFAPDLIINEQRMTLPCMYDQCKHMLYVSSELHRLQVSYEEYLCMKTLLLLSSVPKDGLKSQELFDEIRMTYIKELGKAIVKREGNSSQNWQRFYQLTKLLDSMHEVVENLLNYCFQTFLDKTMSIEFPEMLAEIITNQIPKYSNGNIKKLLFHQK

[3] = biological target: hERG (KCNH2) (Homo sapiens, UniProt Q12809); assay: Inhibition of human ERG (unknown origin) at 10 uM
[4] = biological target: T2, Androgen receptor (Rattus norvegicus) (UniProt P15207); assay: Inhibition of GST-tagged rat androgen receptor LBD domain expressed in insect cells at 10 uM by Gal4-based fluorescence polarization assay
T2 sequence (whole entry): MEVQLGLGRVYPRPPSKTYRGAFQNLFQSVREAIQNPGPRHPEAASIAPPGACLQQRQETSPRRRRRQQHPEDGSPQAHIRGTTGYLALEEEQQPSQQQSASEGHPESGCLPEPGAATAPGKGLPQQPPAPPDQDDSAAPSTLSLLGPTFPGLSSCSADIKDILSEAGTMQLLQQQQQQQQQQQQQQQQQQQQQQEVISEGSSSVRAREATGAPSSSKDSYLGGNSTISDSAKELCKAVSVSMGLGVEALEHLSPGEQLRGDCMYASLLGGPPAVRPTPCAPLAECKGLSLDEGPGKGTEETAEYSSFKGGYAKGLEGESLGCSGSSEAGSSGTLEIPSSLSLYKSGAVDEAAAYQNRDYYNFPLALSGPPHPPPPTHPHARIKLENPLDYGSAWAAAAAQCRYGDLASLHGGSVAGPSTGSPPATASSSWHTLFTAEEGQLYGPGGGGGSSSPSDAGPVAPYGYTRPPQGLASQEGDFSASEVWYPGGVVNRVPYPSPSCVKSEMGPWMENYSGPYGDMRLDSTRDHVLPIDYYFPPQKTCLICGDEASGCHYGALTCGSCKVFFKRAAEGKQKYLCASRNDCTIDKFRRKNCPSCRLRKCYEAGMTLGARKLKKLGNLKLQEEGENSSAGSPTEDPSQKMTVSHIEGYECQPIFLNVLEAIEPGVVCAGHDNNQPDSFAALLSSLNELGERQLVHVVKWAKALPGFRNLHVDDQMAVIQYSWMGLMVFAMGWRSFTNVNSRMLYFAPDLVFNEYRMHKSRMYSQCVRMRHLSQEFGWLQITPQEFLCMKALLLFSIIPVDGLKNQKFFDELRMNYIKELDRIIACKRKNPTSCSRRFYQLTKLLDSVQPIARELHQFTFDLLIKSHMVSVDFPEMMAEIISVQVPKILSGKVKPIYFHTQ

[5] = biological target: Histamine H1 receptor (Homo sapiens) (UniProt P35367); assay: Inhibition of histamine H1 receptor (unknown origin) at 10 uM
[6] = biological target: T3, Progesterone receptor (Homo sapiens) (UniProt P06401); assay: Inhibition of GST-tagged human progesterone receptor LBD domain expressed in insect cells at 10 uM by Gal4-based fluorescence polarization assay
T3 sequence (whole entry): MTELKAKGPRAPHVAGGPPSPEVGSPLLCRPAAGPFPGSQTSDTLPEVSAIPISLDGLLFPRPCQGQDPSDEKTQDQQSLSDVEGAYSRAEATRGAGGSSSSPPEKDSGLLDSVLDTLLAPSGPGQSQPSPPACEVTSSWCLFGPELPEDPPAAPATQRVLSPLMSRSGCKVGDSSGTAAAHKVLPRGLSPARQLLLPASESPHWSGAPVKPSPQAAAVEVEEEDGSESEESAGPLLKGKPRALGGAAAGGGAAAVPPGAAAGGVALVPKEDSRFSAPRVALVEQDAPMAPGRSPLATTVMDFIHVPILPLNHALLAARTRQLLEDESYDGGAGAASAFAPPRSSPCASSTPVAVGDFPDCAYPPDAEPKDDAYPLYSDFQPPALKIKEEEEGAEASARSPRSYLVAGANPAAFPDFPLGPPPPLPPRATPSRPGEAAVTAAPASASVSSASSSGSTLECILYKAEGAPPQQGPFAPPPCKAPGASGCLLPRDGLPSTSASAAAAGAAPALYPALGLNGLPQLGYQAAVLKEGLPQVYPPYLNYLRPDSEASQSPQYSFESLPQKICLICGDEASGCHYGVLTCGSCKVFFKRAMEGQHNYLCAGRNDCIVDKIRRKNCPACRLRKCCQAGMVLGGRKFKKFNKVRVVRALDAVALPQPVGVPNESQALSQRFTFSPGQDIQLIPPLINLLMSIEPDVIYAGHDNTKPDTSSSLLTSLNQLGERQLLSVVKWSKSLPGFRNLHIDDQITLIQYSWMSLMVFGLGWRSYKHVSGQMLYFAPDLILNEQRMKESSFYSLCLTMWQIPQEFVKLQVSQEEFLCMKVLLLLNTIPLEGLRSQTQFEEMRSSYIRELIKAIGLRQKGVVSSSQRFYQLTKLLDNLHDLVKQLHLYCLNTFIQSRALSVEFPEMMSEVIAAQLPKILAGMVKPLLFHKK

Chain of hERG (KCNH2) (Q12809 whole entry, the tested form may be a part): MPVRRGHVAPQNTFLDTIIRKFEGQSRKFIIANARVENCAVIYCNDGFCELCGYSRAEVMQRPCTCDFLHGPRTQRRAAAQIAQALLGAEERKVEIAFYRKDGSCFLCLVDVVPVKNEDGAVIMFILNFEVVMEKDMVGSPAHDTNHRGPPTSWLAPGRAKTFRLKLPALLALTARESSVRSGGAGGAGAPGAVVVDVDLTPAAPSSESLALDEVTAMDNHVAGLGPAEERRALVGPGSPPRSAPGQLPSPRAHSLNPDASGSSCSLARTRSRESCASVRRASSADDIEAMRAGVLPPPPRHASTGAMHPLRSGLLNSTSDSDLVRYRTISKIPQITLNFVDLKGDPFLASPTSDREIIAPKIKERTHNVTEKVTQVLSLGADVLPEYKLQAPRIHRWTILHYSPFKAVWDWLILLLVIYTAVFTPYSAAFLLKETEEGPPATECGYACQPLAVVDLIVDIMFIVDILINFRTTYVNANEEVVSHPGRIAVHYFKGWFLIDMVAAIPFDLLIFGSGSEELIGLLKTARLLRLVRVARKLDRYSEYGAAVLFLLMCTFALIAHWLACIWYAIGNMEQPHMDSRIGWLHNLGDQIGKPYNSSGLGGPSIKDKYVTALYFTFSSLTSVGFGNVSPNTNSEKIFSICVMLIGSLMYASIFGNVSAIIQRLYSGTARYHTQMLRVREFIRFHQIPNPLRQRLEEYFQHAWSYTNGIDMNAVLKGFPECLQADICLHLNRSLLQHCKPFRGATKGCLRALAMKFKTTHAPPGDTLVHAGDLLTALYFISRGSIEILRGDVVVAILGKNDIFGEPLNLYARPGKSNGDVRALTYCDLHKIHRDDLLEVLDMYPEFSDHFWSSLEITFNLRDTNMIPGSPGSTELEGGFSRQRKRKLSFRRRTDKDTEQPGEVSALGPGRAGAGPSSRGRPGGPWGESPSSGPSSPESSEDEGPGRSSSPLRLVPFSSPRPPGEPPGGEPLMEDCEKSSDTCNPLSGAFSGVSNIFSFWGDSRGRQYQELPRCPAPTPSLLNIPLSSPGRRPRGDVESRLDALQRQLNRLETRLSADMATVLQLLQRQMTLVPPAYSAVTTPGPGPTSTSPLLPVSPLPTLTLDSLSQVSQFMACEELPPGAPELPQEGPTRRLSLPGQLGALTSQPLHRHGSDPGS
Chain of Histamine H1 receptor (Homo sapiens) (P35367 whole entry, the tested form may be a part): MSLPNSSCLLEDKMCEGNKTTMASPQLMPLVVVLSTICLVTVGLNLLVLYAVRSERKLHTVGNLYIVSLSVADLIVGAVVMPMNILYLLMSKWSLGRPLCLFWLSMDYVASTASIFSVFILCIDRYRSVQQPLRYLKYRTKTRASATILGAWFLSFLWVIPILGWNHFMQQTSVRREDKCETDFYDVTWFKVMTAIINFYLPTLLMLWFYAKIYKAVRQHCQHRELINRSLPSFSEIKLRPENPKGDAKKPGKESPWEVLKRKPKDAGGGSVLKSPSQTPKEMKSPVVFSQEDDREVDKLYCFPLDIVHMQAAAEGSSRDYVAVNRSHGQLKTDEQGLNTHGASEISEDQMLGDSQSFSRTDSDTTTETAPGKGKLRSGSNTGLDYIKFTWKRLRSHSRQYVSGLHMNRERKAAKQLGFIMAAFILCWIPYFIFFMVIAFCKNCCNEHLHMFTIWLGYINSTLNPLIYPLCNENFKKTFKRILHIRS
Chain of Mineralocorticoid receptor (P08235 whole entry C808S, the tested form may be a part): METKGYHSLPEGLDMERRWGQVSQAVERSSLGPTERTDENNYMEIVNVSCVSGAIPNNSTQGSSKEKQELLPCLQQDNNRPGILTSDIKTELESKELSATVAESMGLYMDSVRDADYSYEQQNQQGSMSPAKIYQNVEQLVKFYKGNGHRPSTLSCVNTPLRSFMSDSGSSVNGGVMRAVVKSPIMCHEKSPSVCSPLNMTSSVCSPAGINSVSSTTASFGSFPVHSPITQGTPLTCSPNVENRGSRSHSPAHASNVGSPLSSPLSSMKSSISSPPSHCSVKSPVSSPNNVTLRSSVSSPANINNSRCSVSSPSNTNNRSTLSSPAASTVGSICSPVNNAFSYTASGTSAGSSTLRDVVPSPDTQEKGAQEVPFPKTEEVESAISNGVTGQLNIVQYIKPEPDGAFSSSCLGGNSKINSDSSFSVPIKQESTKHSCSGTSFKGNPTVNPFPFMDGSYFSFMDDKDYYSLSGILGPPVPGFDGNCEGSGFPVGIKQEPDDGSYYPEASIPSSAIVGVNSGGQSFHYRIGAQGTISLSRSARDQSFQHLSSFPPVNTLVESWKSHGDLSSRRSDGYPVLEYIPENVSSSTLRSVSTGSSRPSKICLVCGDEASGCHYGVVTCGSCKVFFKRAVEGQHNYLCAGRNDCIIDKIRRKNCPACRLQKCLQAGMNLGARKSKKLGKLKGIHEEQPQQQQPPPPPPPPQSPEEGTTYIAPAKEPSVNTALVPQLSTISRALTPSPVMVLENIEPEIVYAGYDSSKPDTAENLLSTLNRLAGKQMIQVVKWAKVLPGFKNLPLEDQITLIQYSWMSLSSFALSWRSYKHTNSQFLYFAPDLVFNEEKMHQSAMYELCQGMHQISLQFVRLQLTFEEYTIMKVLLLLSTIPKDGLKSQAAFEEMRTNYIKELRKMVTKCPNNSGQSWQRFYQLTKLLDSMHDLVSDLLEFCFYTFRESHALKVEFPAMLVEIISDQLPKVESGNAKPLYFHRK

Compound	Ki [1]	inhibition [2]	inhibition at 10 µM [3]	inhibition [4]	inhibition [5]	inhibition [6]
CN1CCC2(CC1)C(=O)Nc1cc(/C=C3\c4ccccc4COc4cc(F)ccc43)ccc12	6 nM	< 40%	78%	< 40%	97%	< 40%
O=C1COc2ccc(/C=C3\c4ccccc4COc4cc(F)ccc43)cc2N1	2 nM	92%	26%	77%	26%	98%
